Test results from patent publication US20220160908A1, “CHELATORS AND METHODS OF MAKING AND USING SAME” (The University Of British Columbia, priority 2019, published 2022).
Where two headings read alike, the source gives them in different places.

Experiments:
[1] = cited from earlier work
[2] = Protonation constants by combined potentiometric-spectrophotometric titrations; assay type: physicochemical; settings: 25° C., l = […] (NaCl)
From the text: The basicity of different ionizable and non-ionizable protons determine the extent of the competition between the metal ion and the protons to the binding sites of the chelator during metal complexation. Therefore, protonation constants must be considered when evaluating the chelator. […] The remaining four protonation constants were not determined as these sites deprotonated at a pH below the electrode threshold. As a result but without being bound by theory, during metal complexation which preferably occurs at or near physiological pH for pharmaceutical purposes, competition from those protonation processes would be negligible.
FIGS. 4A, 4B and 4C show the absorption bands of the species involved in the protonation equilibria mentioned above at different pH, while Table 2 presents the protonation constants calculated from the experimental data using the HypSpec2014^25 and Hyperquad2013^26 programs. The speciation plots of different species of H4py4pa in FIG. 4D were calculated from the protonation constants in Table 2 with Hyss software.^27
All potentiometric titrations were carried out with a Metrohm Titrando 809 and a Metrohm Dosino 800 with a Ross combined electrode. A 20 mL and 25° C. thermostated glass cell with an inlet-outlet tube for nitrogen gas (purified through a 10% NaOH solution to exclude any CO2 prior to and during the course of the titration) was used as a titration cell. The electrode was calibrated daily in hydrogen ion concentration by direct titration of HCl with freshly prepared NaOH solution and the results were analyzed with Gran procedure^29 in order to obtain the standard potential E° and the ionic product of water pKw at 25° C. and 0.16 M NaCl as a supporting electrolyte. Solutions were titrated with carbonate-free NaOH (0.16 M) that was standardized against freshly recrystallized potassium hydrogen phthalate.
In the study of complex formation equilibria, the determination of the stability constant of [La(H4py4pa)] species was carried out by two different methods. The first method used UV-Vis spectrophotometric measurements on a set of solutions containing 1:1 metal to ligand molar ratio ([H4py4pa]=[M]^3+˜1.33×10^−4 M) and different amounts of HCl in the spectral range 200-400 nm at 25° C. and 1 cm path length. The molar absorptivities of all the protonated species of H4py4pa calculated with HypSpec2014^25 from the protonation constant experiments were included in the calculations. […] The stability constants for the complexes formed by H4edta and La^3+ were taken from literature.^31 Direct pH-potentiometric titrations of the La^3+-H4py4pa system were also carried out. Metal solution was prepared by adding the atomic absorption (AA) standard metal ion solution to a H4py4pa solution of known concentration in the 1:1 metal to ligand molar ratio for La(III). Ligand and metal concentrations were in the range of 0.6-0.8×10^−4 M. The exact amount of acid present in the atomic standard metal solutions standards was determined by Gran's method^29 titrating equimolar solutions of La(III) and Na2H2-EDTA. […] Three replicates of each titration were performed for each system. Relying on the stability constant for the species La(Hpy4pa) obtained by the two different methods, the fitting of the direct potentiometric titrations was possible and yielding the stability constants in Table 3. All the potentiometric measurements were processed using the Hyperquad2013 software^26 while the obtained spectrophotometric data were processed with the HypSpec2014^25 program. Proton dissociation constants corresponding to hydrolysis of La(III) aqueous ion included in the calculations were taken from Baes and Mesmer.^32 The overall equilibrium (formation) constants log β referred to the overall equilibria: pM+qH+rL ⇄MpHqLr (the charges are omitted), where p might also be 0 in the case of protonation equilibria and q can be negative for hydroxide species. […]

[3] = Complex formation equilibria with La(III): stability constants and pM; assay type: physicochemical
[4] = ligand-ligand potentiometric competition with EDTA at l = […] (NaCl) and 25° C.
[5] = potentiometric titrations at l = […] (NaCl) and 25° C.

O=C(O)c1cccc(CN2CCOCCOCCN(Cc3cccc(C(=O)O)n3)CCOCCOCC2)n1 [Compound H2macropa, N,N′-bis[(6-carboxy-2-pyridil)methyl]-4,13-diaza-18-crown-6]
log K[La(macropa)] ([1]; 25° C., l=0.1 M (KCl)): 14.99

O=C(O)CN1CCN(CC(=O)O)CCN(CC(=O)O)CCN(CC(=O)O)CC1 [DOTA, 1,4,7,10-tetraazacyclododecane-1,4,7,10-tetraacetic acid]
log K[La(DOTA)] ([1]; 25° C.): 24.25 | pM (La^3+) ([1]; -log [M]free at [ligand]=10 μM, [M]=1 μM, pH=7.4): 19.2

O=C(O)c1cccc(CN(Cc2cccc(CN(Cc3cccc(C(=O)O)n3)Cc3cccc(C(=O)O)n3)n2)Cc2cccc(C(=O)O)n2)n1 [Compound H4py4pa]
log K, H2L^2− + H^+ ⇌ H3L^− (pK9) [2]: 4.06 (2) | log K, H3L^− + H+ ⇌ H4L (pK8) [2]: 3.58 (2) | log K, H4L + H^+ ⇌ H5L^+ (pK7) [2]: 2.71 (3) | log K, H5L^+ + H^+ ⇌ H6L^2+ (pK6) [2]: 2.55 (4) | log K, H6L^2+ + H^+ ⇌ H7L^3+ (pK5) [2]: 2.31 (4) | log K, HL^3− + H^+ ⇌ H2L^2− (pK10) [2]: 6.07 (1) | log K, L^4− + H^+ ⇌ HL^3− (pK11) [2]: 6.96 (1) | log β, H2L^2− + H^+ ⇌ H3L^− [2]: 17.09 (2) | log β, H3L^− + H+ ⇌ H4L [2]: 20.67 (2) | log β, H4L + H^+ ⇌ H5L^+ [2]: 23.38 (3) | log β, H5L^+ + H^+ ⇌ H6L^2+ [2]: 25.93 (4) | log β, H6L^2+ + H^+ ⇌ H7L^3+ [2]: 28.24 (4) | log β, HL^3− + H^+ ⇌ H2L^2− [2]: 13.03 (1) | log β, L^4− + H^+ ⇌ HL^3− [2]: 6.96 (1) | pM (La^3+) ([3]; -log [M]free at [L] = 10 μM, [M] = 1 μM and pH = 7.4): 21.0 | log K, ML + H^+ ⇌ MHL ([3]; in-batch acidic spectrophotometric competition at 25° C., not evaluated at constant l): 4.01(5) | log K, M(OH)L + H^+ ⇌ ML [3, 4]: 9.94(3) | log K, ML + H^+ ⇌ MHL [3, 4]: 3.78(4) | log K, M^3+ + L ⇌ ML [3, 4]: 20.37(2) | log K, M(OH)L + H^+ ⇌ ML [3, 5]: 9.96(4) | log K, M^3+ + L ⇌ ML [3, 5]: 20.33(3)
